According to ChEMBL document CHEMBL3867433, “Synthesis and antimicrobial activity of styryl/pyrrolyl/pyrazolyl sulfonylmethyl-1,3,4-oxadiazolyl amines and styryl/pyrrolyl/pyrazolyl sulfonylmethyl-1,3,4-thiadiazolyl amines” (2016):
≈ marks a conversion by molar mass, not a printed value.

Assays:
Type in all cases: functional
Klebsiella pneumoniae [1] = assay: Bactericidal activity against Klebsiella pneumoniae after 24 hrs
Aspergillus niger [2] = assay: Antifungal activity against Aspergillus niger assessed as inhibition of spore germination at 100 ug/well after 48 hrs by agar well diffusion method; settings: read-out: DIZ
Klebsiella pneumoniae [3] = assay: Antibacterial activity against Klebsiella pneumoniae after 24 hrs by broth dilution method
[4] = Antifungal activity against Penicillium chrysogenum assessed as inhibition of spore germination at 100 ug/well after 48 hrs by agar well diffusion method
Penicillium chrysogenum [5] = assay: Fungicidal activity against Penicillium chrysogenum assessed as inhibition of spore germination after 48 hrs
Aspergillus niger [6] = assay: Fungicidal activity against Aspergillus niger assessed as inhibition of spore germination after 48 hrs
[7] = Antifungal activity against Penicillium chrysogenum assessed as inhibition of spore germination after 48 hrs by broth dilution method
Pseudomonas aeruginosa [8] = assay: Bactericidal activity against Pseudomonas aeruginosa after 24 hrs
Staphylococcus aureus [9] = assay: Antibacterial activity against Staphylococcus aureus at 50 ug/well after 24 hrs by agar well diffusion method; settings: read-out: DIZ
Klebsiella pneumoniae [10] = assay: Antibacterial activity against Klebsiella pneumoniae at 25 ug/well after 24 hrs by agar well diffusion method; settings: read-out: DIZ
Bacillus subtilis [11] = assay: Antibacterial activity against Bacillus subtilis at 50 ug/well after 24 hrs by agar well diffusion method; settings: read-out: DIZ
Staphylococcus aureus [12] = assay: Antibacterial activity against Staphylococcus aureus at 12.5 ug/well after 24 hrs by agar well diffusion method; settings: read-out: DIZ
Klebsiella pneumoniae [13] = assay: Antibacterial activity against Klebsiella pneumoniae at 50 ug/well after 24 hrs by agar well diffusion method; settings: read-out: DIZ
Bacillus subtilis [14] = assay: Antibacterial activity against Bacillus subtilis at 25 ug/well after 24 hrs by agar well diffusion method; settings: read-out: DIZ
Aspergillus niger [15] = assay: Antifungal activity against Aspergillus niger assessed as inhibition of spore germination at 12.5 ug/well after 48 hrs by agar well diffusion method; settings: read-out: DIZ
Klebsiella pneumoniae [16] = assay: Antibacterial activity against Klebsiella pneumoniae at 12.5 ug/well after 24 hrs by agar well diffusion method; settings: read-out: DIZ
Penicillium chrysogenum [17] = assay: Ratio of MFC to MIC for Penicillium chrysogenum
Staphylococcus aureus [18] = assay: Antibacterial activity against Staphylococcus aureus at 100 ug/well after 24 hrs by agar well diffusion method; settings: read-out: DIZ
Pseudomonas aeruginosa [19] = assay: Antibacterial activity against Pseudomonas aeruginosa at 25 ug/well after 24 hrs by agar well diffusion method; settings: read-out: DIZ
Staphylococcus aureus [20] = assay: Antibacterial activity against Staphylococcus aureus after 24 hrs by broth dilution method
Staphylococcus aureus [21] = assay: Bactericidal activity against Staphylococcus aureus after 24 hrs
Aspergillus niger [22] = assay: Antifungal activity against Aspergillus niger assessed as inhibition of spore germination after 48 hrs by broth dilution method
Pseudomonas aeruginosa [23] = assay: Antibacterial activity against Pseudomonas aeruginosa after 24 hrs by broth dilution method
Klebsiella pneumoniae [24] = assay: Antibacterial activity against Klebsiella pneumoniae at 100 ug/well after 24 hrs by agar well diffusion method; settings: read-out: DIZ
Bacillus subtilis [25] = assay: Antibacterial activity against Bacillus subtilis at 12.5 ug/well after 24 hrs by agar well diffusion method; settings: read-out: DIZ
Bacillus subtilis [26] = assay: Bactericidal activity against Bacillus subtilis after 24 hrs
Pseudomonas aeruginosa [27] = assay: Antibacterial activity against Pseudomonas aeruginosa at 50 ug/well after 24 hrs by agar well diffusion method; settings: read-out: DIZ
Staphylococcus aureus [28] = assay: Antibacterial activity against Staphylococcus aureus at 25 ug/well after 24 hrs by agar well diffusion method; settings: read-out: DIZ
[29] = Antifungal activity against Penicillium chrysogenum assessed as inhibition of spore germination at 50 ug/well after 48 hrs by agar well diffusion method
Pseudomonas aeruginosa [30] = assay: Ratio of MBC to MIC for Pseudomonas aeruginosa
Pseudomonas aeruginosa [31] = assay: Antibacterial activity against Pseudomonas aeruginosa at 100 ug/well after 24 hrs by agar well diffusion method; settings: read-out: DIZ
Aspergillus niger [32] = assay: Antifungal activity against Aspergillus niger assessed as inhibition of spore germination at 25 ug/well after 48 hrs by agar well diffusion method; settings: read-out: DIZ
[33] = Antifungal activity against Penicillium chrysogenum assessed as inhibition of spore germination at 12.5 ug/well after 48 hrs by agar well diffusion method
[34] = Antifungal activity against Penicillium chrysogenum assessed as inhibition of spore germination at 25 ug/well after 48 hrs by agar well diffusion method
Bacillus subtilis [35] = assay: Antibacterial activity against Bacillus subtilis at 100 ug/well after 24 hrs by agar well diffusion method; settings: read-out: DIZ
Bacillus subtilis [36] = assay: Antibacterial activity against Bacillus subtilis after 24 hrs by broth dilution method
Pseudomonas aeruginosa [37] = assay: Antibacterial activity against Pseudomonas aeruginosa at 12.5 ug/well after 24 hrs by agar well diffusion method; settings: read-out: DIZ
Aspergillus niger [38] = assay: Antifungal activity against Aspergillus niger assessed as inhibition of spore germination at 50 ug/well after 48 hrs by agar well diffusion method; settings: read-out: DIZ

SMILES | zone of inhibition at 100 µg/disc (Aspergillus niger [2]) [mm] | inhibition zone (IZ) [4] [mm] | zone of inhibition at 50 µg/disc (Staphylococcus aureus [9]) [mm] | zone of inhibition at 25 µg/disc (Klebsiella pneumoniae [10]) [mm] | zone of inhibition at 50 µg/disc (Bacillus subtilis [11]) [mm] | zone of inhibition at 12.5 µg/disc (Staphylococcus aureus [12]) [mm] | zone of inhibition at 50 µg/disc (Klebsiella pneumoniae [13]) [mm] | zone of inhibition at 25 µg/disc (Bacillus subtilis [14]) [mm] | zone of inhibition at 12.5 µg/disc (Aspergillus niger [15]) [mm] | zone of inhibition at 12.5 µg/disc (Klebsiella pneumoniae [16]) [mm] | zone of inhibition at 100 µg/disc (Staphylococcus aureus [18]) [mm] | zone of inhibition at 25 µg/disc (Pseudomonas aeruginosa [19]) [mm] | zone of inhibition at 100 µg/disc (Klebsiella pneumoniae [24]) [mm] | zone of inhibition at 12.5 µg/disc (Bacillus subtilis [25]) [mm] | zone of inhibition at 50 µg/disc (Pseudomonas aeruginosa [27]) [mm] | zone of inhibition at 25 µg/disc (Staphylococcus aureus [28]) [mm] | inhibition zone (IZ) [29] [mm] | zone of inhibition at 100 µg/disc (Pseudomonas aeruginosa [31]) [mm] | zone of inhibition at 25 µg/disc (Aspergillus niger [32]) [mm] | inhibition zone (IZ) [33] [mm] | other results
Nc1nnc(CS(=O)(=O)c2n[nH]cc2-c2ccc(Cl)cc2)s1 | 30 | 38 | 23 | 32 | 28 | 21 | 34 | 27 | 24 | 30 | 25 | 26 | 36 | 26 | 28 | 22 | 35 | 31 | 26 | 31 | MBC (Klebsiella pneumoniae [1]): > 100 µg/mL; MIC (Klebsiella pneumoniae [3]): 25 µg/mL (≈ 70.3 µM); MFC (Penicillium chrysogenum [5]): 50 µg/mL (≈ 141 µM); MFC (Aspergillus niger [6]): 100 µg/mL (≈ 281 µM); MIC [7]: 12.5 µg/mL (≈ 35.1 µM); MBC (Pseudomonas aeruginosa [8]): 50 µg/mL (≈ 141 µM); Ratio (Penicillium chrysogenum [17]): >2; MIC (Staphylococcus aureus [20]): 50 µg/mL (≈ 141 µM); MBC (Staphylococcus aureus [21]): 200 µg/mL (≈ 562 µM); MIC (Aspergillus niger [22]): 25 µg/mL (≈ 70.3 µM); MIC (Pseudomonas aeruginosa [23]): 12.5 µg/mL (≈ 35.1 µM); MBC (Bacillus subtilis [26]): 100 µg/mL (≈ 281 µM); Ratio (Pseudomonas aeruginosa [30]): >2; inhibition zone (IZ) [34]: 33 mm; zone of inhibition at 100 µg/disc (Bacillus subtilis [35]): 30 mm; MIC (Bacillus subtilis [36]): 25 µg/mL (≈ 70.3 µM); zone of inhibition at 12.5 µg/disc (Pseudomonas aeruginosa [37]): 24 mm; zone of inhibition at 50 µg/disc (Aspergillus niger [38]): 28 mm
Nc1nnc(CS(=O)(=O)c2c[nH]cc2-c2ccc(Cl)cc2)s1 | 21 | 37 | 21 | 30 | 23 | 17 | 32 | 22 | 15 | 28 | 23 | 22 | 34 | 21 | 24 | 19 | 34 | 26 | 17 | 29 | MBC (Klebsiella pneumoniae [1]): > 100 µg/mL; MIC (Klebsiella pneumoniae [3]): 25 µg/mL (≈ 70.5 µM); MFC (Penicillium chrysogenum [5]): > 200 µg/mL; MFC (Aspergillus niger [6]): 100 µg/mL (≈ 282 µM); MIC [7]: 50 µg/mL (≈ 141 µM); MBC (Pseudomonas aeruginosa [8]): 100 µg/mL (≈ 282 µM); Ratio (Penicillium chrysogenum [17]): >2; MIC (Staphylococcus aureus [20]): 50 µg/mL (≈ 141 µM); MBC (Staphylococcus aureus [21]): > 200 µg/mL; MIC (Aspergillus niger [22]): 25 µg/mL (≈ 70.5 µM); MIC (Pseudomonas aeruginosa [23]): 25 µg/mL (≈ 70.5 µM); MBC (Bacillus subtilis [26]): > 200 µg/mL; Ratio (Pseudomonas aeruginosa [30]): >2; inhibition zone (IZ) [34]: 32 mm; zone of inhibition at 100 µg/disc (Bacillus subtilis [35]): 25 mm; MIC (Bacillus subtilis [36]): 50 µg/mL (≈ 141 µM); zone of inhibition at 12.5 µg/disc (Pseudomonas aeruginosa [37]): 20 mm; zone of inhibition at 50 µg/disc (Aspergillus niger [38]): 19 mm
CC(=O)N1CCN(c2ccc(OCC3COC(Cn4ccnc4)(c4ccc(Cl)cc4Cl)O3)cc2)CC1 (stereo not drawn) [KETOCONAZOLE] | 37 | 39 | – | – | – | – | – | – | 29 | – | – | – | – | – | – | – | 37 | – | 31 | 34 | MIC [7]: 12.5 µg/mL (≈ 23.5 µM); MIC (Aspergillus niger [22]): 6.25 µg/mL (≈ 11.8 µM); inhibition zone (IZ) [34]: 36 mm; zone of inhibition at 50 µg/disc (Aspergillus niger [38]): 34 mm
O=C(N[C@H](CO)[C@H](O)c1ccc([N+](=O)[O-])cc1)C(Cl)Cl [CHLORAMPHENICOL] | – | – | 35 | 40 | 36 | 30 | 42 | 34 | – | 38 | 37 | 27 | 44 | 32 | 29 | 32 | – | 32 | – | – | MIC (Klebsiella pneumoniae [3]): 12.5 µg/mL (≈ 38.7 µM); MIC (Staphylococcus aureus [20]): 6.25 µg/mL (≈ 19.3 µM); MIC (Pseudomonas aeruginosa [23]): 6.25 µg/mL (≈ 19.3 µM); zone of inhibition at 100 µg/disc (Bacillus subtilis [35]): 40 mm; MIC (Bacillus subtilis [36]): 6.25 µg/mL (≈ 19.3 µM); zone of inhibition at 12.5 µg/disc (Pseudomonas aeruginosa [37]): 25 mm
Nc1nnc(CS(=O)(=O)/C=C\c2ccc(Cl)cc2)s1 | 32 | 41 | 24 | 34 | 30 | 22 | 36 | 29 | 27 | 32 | 26 | 26 | 38 | 28 | 28 | 23 | 37 | 34 | 29 | 34 | MBC (Klebsiella pneumoniae [1]): 50 µg/mL (≈ 158 µM); MIC (Klebsiella pneumoniae [3]): 12.5 µg/mL (≈ 39.6 µM); MFC (Penicillium chrysogenum [5]): 25 µg/mL (≈ 79.2 µM); MFC (Aspergillus niger [6]): 50 µg/mL (≈ 158 µM); MIC [7]: 12.5 µg/mL (≈ 39.6 µM); MBC (Pseudomonas aeruginosa [8]): 12.5 µg/mL (≈ 39.6 µM); Ratio (Penicillium chrysogenum [17]): 2; MIC (Staphylococcus aureus [20]): 25 µg/mL (≈ 79.2 µM); MBC (Staphylococcus aureus [21]): > 100 µg/mL; MIC (Aspergillus niger [22]): 12.5 µg/mL (≈ 39.6 µM); MIC (Pseudomonas aeruginosa [23]): 6.25 µg/mL (≈ 19.8 µM); MBC (Bacillus subtilis [26]): 100 µg/mL (≈ 317 µM); Ratio (Pseudomonas aeruginosa [30]): 2; inhibition zone (IZ) [34]: 35 mm; zone of inhibition at 100 µg/disc (Bacillus subtilis [35]): 32 mm; MIC (Bacillus subtilis [36]): 25 µg/mL (≈ 79.2 µM); zone of inhibition at 12.5 µg/disc (Pseudomonas aeruginosa [37]): 24 mm; zone of inhibition at 50 µg/disc (Aspergillus niger [38]): 31 mm
Cc1ccc(-c2c[nH]nc2S(=O)(=O)Cc2nnc(N)s2)cc1 | 27 | 34 | 18 | 24 | 23 | 16 | 26 | 22 | 21 | 22 | 20 | 22 | 28 | 21 | 24 | 17 | 32 | 26 | 23 | 28 | inhibition zone (IZ) [34]: 30 mm; zone of inhibition at 100 µg/disc (Bacillus subtilis [35]): 25 mm; zone of inhibition at 12.5 µg/disc (Pseudomonas aeruginosa [37]): 20 mm; zone of inhibition at 50 µg/disc (Aspergillus niger [38]): 25 mm
